Assay results from patent US5385941A, “Salts/ion pairs of non-steroidal anti-inflammatory drugs in various dosage forms” (Warner-Lambert Company, priority 1993, dated 1995).
≈ marks a conversion by molar mass, not a printed value.

Assay: physchem
Details: water

Compound Cc1ccc(Cl)c(Nc2ccccc2C(=O)O)c1Cl [MA, Meclofenamic acid] has a solubility of 30 µg/mL (≈ 101 µM).
